{"source": "patent US20140249191A1", "about": "“Compositions for Controlling Vascularization in Ophthalmological and Dermatological Diseases” (AVIENNE PHARMACEUTICALS GMBH, priority 2011, published 2014)", "key": {"[1]": {"system": "ocular angiogenesis", "assay": "Conjunctival incision ocular angiogenesis model", "type": "in vivo, white pigs", "conditions": "pigs, eye drops 100 μg/ml", "text": "AV-398 inhibits ocular angiogenesis in vivo in a widely accepted large animal model. The cornea is an ideal model system for angiogenesis in general, and more specifically for angiogenesis of the eye. The corneal angiogenesis assay is one of the most widely used in vivo assay for the evaluation of factors influencing angiogenesis (Auerbach R, 2003, Thiele W, 2006). One reason that makes the cornea an ideal object for observing neovascularisation is its normal lack of vascularity, maintained by different molecular mechanisms. New vessels can easily be identified by visual inspection alone and quantified with the help of computerized image analysis programs. The effect of an ophthalmological formulation of AV-398 after a conjunctival insult with subsequent angiogenesis in a large animal model was investigated in order to test whether the in vitro data, such as anti-proliferative effects on human endothelial cells, could be reproduced in vivo. Six white pigs weighing 10 to 15 kg were included. First, corneae and conjunctivae were anaesthesized by local application of lidocaine 4%. Then, an incision of 0.5 cm length through the conjunctival tunica sclerae to the substantia propria was placed in parallel to the dorsal corneal limbus at a distance of approximately 2 mm. The animals were treated as follows. […]"}, "[2]": {"system": "endothelial cells of different origin (lung, lymphatics and umbilical)", "assay": "Endothelial cell proliferation assay (direct cell counting)", "type": "cell-based, human", "experimental": "Primary endothelial cell lines (HMVEC-dLyAd—human dermal lymphatic microvascular endothelial cells (EC), dermal blood microvascular EC, HMVEC-LB lung blood microvascular EC, HMVEC-C cardiac human microvascular endothelial cells and MVEC-d—dermal microvascular EC) are from Cambrex Bio Science (Cambrex Bio Science Walkersville Inc., Walkersville, Md., USA). Cell lines are cultured according to the manufacturer's recommendations.\nFor proliferation assays, cells are seeded in 24- to 96-well plates in medium at different concentrations according to the cell type. After 24 hours, the medium is removed and replaced with fresh medium containing increasing concentrations of the compounds. The plates are then incubated for additional 24 to 72 hours, depending on the type of the experiment. Cells are then trypsinized and collected for direct counting. Results are plotted and expressed as means (±SE) for each compound and for a given concentration."}, "[3]": {"system": "SAOS-2, Hela, HT29, U87MG and SK-N-DZ cells", "assay": "Cytotoxic activity in cancer cell lines (cell numbers)", "type": "cell-based", "conditions": "up to 20 μM; uncoated dishes or coated with vitronectin or fibrinogen", "experimental": "For example, cytotoxic activity of AV-398 was determined in several cancer cell lines (SAOS-2, Hela, HT29, U87MG and SK-N-DZ cells) by assessing cell numbers after treating cell lines with varying concentration of up to 20 μM. Experiments were performed either on uncoated dishes, or on dishes coated with vitronectin or fibrinogen. In addition, tumor cell lines were treated in parallel with echistatin (Gan Z R et al (1998)). […] Similar data were recently published showing cytotoxic activity also only against MDA-MB-435 breast cancer cells (Dayam R et al, 2006)."}, "[4]": {"system": "chorioallantoic membrane vascularisation", "assay": "Chorioallantoic membrane (CAM) assay", "type": "in vivo, chicken embryo", "conditions": "applied on CAM day 6 p.f., incubated until day 11 p.f.", "text": "Local Application of AV-398 inhibits in vivo angiogenesis as evidenced by the chicken egg chorioallantoic membrane model. The chorioallantoic membrane (CAM) of the developing chicken embryo serves as an alternative to the traditional mammalian in vivo models, and further corroborates the findings in pigs described above and has clear relevance for the treatment e.g. dermatological indications linked to neoangiogenesis. AV-398 was applied over 5 days.\nEggs were opened on day 6 post fertilization (p.f.). Substances (200 μl respectively) were applied on the CAM on day 6 p.f. and incubated until day 11 p.f. As a vehicle control, 1% DMSO in PBS (phosphate-buffered saline solution pH 7.4) without AV-398 was used. Eggs were inspected daily by stereo-microscopy and pictures were taken (6× magnification)."}, "[5]": {"molecular_target": "αvβ3-receptor (Homo sapiens, UniProt P05106+P06756)", "sequence (P06756 31-889 limits assumed)": "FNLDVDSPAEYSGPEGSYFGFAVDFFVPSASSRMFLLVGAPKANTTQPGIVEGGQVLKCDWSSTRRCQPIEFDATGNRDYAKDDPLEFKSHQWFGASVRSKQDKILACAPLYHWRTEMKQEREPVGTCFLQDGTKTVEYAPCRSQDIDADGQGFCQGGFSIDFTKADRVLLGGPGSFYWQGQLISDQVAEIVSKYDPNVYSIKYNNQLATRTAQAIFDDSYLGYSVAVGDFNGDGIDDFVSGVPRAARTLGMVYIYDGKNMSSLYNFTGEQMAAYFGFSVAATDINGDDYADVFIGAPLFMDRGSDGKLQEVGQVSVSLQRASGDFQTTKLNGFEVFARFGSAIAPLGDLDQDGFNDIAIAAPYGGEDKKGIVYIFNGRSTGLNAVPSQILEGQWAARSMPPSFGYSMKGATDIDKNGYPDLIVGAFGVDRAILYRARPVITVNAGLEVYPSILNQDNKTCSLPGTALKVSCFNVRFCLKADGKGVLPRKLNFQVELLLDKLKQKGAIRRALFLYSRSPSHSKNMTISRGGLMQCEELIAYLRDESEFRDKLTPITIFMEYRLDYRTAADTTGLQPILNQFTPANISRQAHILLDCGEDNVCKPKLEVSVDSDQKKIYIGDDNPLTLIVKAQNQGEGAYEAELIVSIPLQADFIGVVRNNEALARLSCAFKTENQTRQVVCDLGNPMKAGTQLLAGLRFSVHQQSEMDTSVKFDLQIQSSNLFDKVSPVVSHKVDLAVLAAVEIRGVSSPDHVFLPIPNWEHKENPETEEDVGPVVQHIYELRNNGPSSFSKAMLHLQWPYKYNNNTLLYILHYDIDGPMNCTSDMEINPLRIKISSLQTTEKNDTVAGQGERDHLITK", "sequence (P06756 891-1048 partner limits assumed)": "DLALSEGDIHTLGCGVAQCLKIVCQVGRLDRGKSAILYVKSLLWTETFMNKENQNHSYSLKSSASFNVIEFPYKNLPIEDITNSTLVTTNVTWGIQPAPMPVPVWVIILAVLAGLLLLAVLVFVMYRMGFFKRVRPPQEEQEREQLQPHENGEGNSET", "sequence (P05106 27-788)": "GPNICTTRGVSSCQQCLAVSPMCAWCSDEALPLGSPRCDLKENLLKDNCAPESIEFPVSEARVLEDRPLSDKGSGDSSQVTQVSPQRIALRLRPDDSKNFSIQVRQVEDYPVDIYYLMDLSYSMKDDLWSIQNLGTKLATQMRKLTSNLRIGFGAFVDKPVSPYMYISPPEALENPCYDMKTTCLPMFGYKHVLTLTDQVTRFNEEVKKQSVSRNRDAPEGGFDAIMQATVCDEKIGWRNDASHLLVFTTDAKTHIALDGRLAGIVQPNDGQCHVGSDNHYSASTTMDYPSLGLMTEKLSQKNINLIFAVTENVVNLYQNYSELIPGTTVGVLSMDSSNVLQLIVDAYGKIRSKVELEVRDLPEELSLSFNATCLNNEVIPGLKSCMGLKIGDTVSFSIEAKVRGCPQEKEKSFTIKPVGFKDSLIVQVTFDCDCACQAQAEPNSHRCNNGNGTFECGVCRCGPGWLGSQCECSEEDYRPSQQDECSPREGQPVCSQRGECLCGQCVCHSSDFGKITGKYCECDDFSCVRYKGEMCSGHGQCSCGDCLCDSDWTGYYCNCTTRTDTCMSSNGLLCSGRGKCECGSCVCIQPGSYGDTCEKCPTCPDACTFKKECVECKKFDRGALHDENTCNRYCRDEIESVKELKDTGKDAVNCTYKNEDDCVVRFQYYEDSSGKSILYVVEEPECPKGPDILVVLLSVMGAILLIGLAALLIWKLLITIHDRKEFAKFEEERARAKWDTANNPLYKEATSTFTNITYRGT", "conditions": "Dayam et al, 2006; cited from earlier work"}}, "note": "“Also recorded” adds a separate entry of the source.", "data": [{"smiles": "CCOc1cc(C=C2S/C(=N/c3ccc(C(=O)O)cc3)N(C)C2=O)ccc1O", "note": "(stereo in doubt) [AV-398, 4-({5-[(E)-1-(3-ethoxy-4-hydroxyphenyl)methylidene]-3-methyl-4-oxo-1,3-thiazolan-2-yliden}amino)benzoic acid]", "values": [{"measurement": "bleeding surrounding the incision immediately after treatment", "setting": "[1]", "result": "marked diffuse bleeding"}, {"measurement": "neoangiogenesis on treated conjunctivae versus control-treated eyes", "setting": "[1]; topical after incision", "result": "diminished neoangiogenesis"}, {"measurement": "antiproliferative effect against endothelial cells", "setting": "[2]", "result": "strong antiproliferative effect"}, {"measurement": "effects on cancer cell lines (cytotoxic activity)", "setting": "[3]", "result": "no meanigful effects"}, {"measurement": "vascularisation of chicken embryo CAM versus vehicle control", "setting": "[4]", "result": "markedly decreased vascularisation; also recorded: significant reduction of vascularisation"}, {"measurement": "avβ3 binding affinity", "setting": "[5]", "result": 240, "unit": "nM"}]}]}
